Measured values from patent US6113896A, “Pharmaceutical compositions containing ecotin and homologs thereof” (priority 1994, dated 2000).
Where “and” joins values, the source holds several entries; their conditions need not be identical. Equal values may be shown once. Entries after “also recorded” stand apart in the source; their conditions may differ.

Experiments:
human plasma kallikrein = assay: Equilibrium inhibition constant with plasma kallikrein; format: biochemical
Procedure: (§1) Determination of Equilibrium Inhibition Constants Apparent Ki values (Ki *) for the inhibition of the enzymes tested by ecotin and mutants were measured as follows. All reactions were performed at 25° C. Stock solutions of trypsin were quantitated by active site burst titration with MUGB as previously described (Jameson, G. W. et al., Biochem. J. 131:107-117 [1973]) using a Fluoroskan II plate reader at excitation wavelength of 355 nm and emission wavelength of 460 nm. Data was collected on a Macintosh SE20 using either Delta Soft II Fl v3.31 software (BioMetallics). Active site titrated trypsin was then used to quantitate ecotin active sites using BAPA as the substrate; a stoichiometry of 1:1 was assumed (Chung, C. H. et al., supra). Factor Xa, Factor XIIa, plasma kallikrein, or HLE were then quantitated by active site titration using ecotin as a standard, again assuming 1:1 stoichiometry. In addition, the concentration of HLE was quantitated by methods previously described using a calibrated stock of α1 -proteinase inhibitor to titrate the HLE active sites (Beatty, K. et al., J. Biol. Chem. 255:3931-3934 [1980]); the same HLE active site concentration was determined using both ecotin and α1 -proteinase inhibitor. […]

human FXa = assay: Equilibrium inhibition constant with Factor Xa (tight-binding analysis); format: biochemical; conditions: for inhibition of FXa, in words: compared with wild type
Procedure: Determination of Equilibrium Inhibition Constants Apparent Ki values (Ki *) for the inhibition of the enzymes tested by ecotin and mutants were measured as follows. All reactions were performed at 25° C. Stock solutions of trypsin were quantitated by active site burst titration with MUGB as previously described (Jameson, G. W. et al., Biochem. J. 131:107-117 [1973]) using a Fluoroskan II plate reader at excitation wavelength of 355 nm and emission wavelength of 460 nm. Data was collected on a Macintosh SE20 using either Delta Soft II Fl v3.31 software (BioMetallics). Active site titrated trypsin was then used to quantitate ecotin active sites using BAPA as the substrate; a stoichiometry of 1:1 was assumed (Chung, C. H. et al., supra). Factor Xa, Factor XIIa, plasma kallikrein, or HLE were then quantitated by active site titration using ecotin as a standard, again assuming 1:1 stoichiometry. In addition, the concentration of HLE was quantitated by methods previously described using a calibrated stock of α1 -proteinase inhibitor to titrate the HLE active sites (Beatty, K. et al., J. Biol. Chem. 255:3931-3934 [1980]); the same HLE active site concentration was determined using both ecotin and α1 -proteinase inhibitor. The substate for FXa was Spectrozyme fXa (0.5 mM); the substrate for FXIIa (0.5 mM) and plasma kallikrein was S2302 (0.5 mM); the substrate for HLE was MeOSuc-Ala-Ala-Pro-Val-pNA (0.4 mM). There was good agreement upon comparison of the protein concentrations determined by amino acid analysis, Bradford analysis (Bradford, M. M. Anal. Biochem. 72:248-254 (1976) or active site titrations for trypsin, ecotin, FXa, FXIIa, plasma kallikrein, and HLE.
Therefore, apparent equilibrium dissociation values (Ki *) were determined using methods derived for tight-binding inhibitors (Morrison, J. F. Biochim. Biophys. Acta 185:269-286 [1969]), (Bieth, J. in Proteinase Inhibitors (Fritz, H., Tschesche, H., Greene, L. J. and Truscheit, E., Ed.) pp 463-469, Springer-Verlag, New York [1974]). Data were fit by nonlinear regression analysis to equation 1 and values for Ki * were determined. [formula] where α is the fractional activity (steady-state inhibited rate divided by the uninhibited rate), [Eo ] is the total enzyme concentration, and [Io ] is the total ecotin concentration. Since the inhibitor and substrate compete for the same site, the true Ki value is related to Ki^* by the expression Ki =Ki */(1+[S]/Km), where Km is the Michaelis constant for the substrate, and [S] is the substrate concentration.
a. […] Following a 1 hour incubation at room temperature to reach equilibration of the enzyme.cndot.inhibitor complex, 20 μl of 5 mM Spectrozyme fXa was added, and the steady-state rate of product formation measured by monitoring the change in absorbance at 405 nm. The Km for Spectrozyme fXa with FXa under these conditions was determined to be 0.23 mM by linear regression analysis of Lineweaver-Burke plots.

human FXIIa = assay: Equilibrium inhibition constant with Factor XIIa; format: biochemical; conditions: apparent value, 0.5 mM S2302
Procedure: as §1

[1] = biological target: HLE (human leukocyte elastase); assay: Equilibrium inhibition constant with HLE; format: biochemical; conditions: apparent value, 0.08 mM MeOSuc-Ala-Ala-Pro-Val-MCA
Procedure: as §1

plasmin = assay: Specificity assay, plasmin; format: biochemical, human; conditions: for Percent Activity of Plasmin: 100 nM inhibitor, ~1 h, 15 nM enzyme
Procedure: Specificity Assays The following assays were used to test the specificity of ecotin and the M84K and M84R mutants against various proteases. Ecotin, M84K, M84R (100 nM each), or a control blank were incubated at room temperature for ~1 h with each enzyme. The enzymes tested (enzyme concentration, buffer, substrate) were FXa (1.2 nM, Buffer A, 0.7 mM Spectrozyme fXa), thrombin (3.7 nM, Buffer A, 0.7 mM S2366), TF.cndot.FVIIa (12.0 nM, Buffer B, 0.7 mM S2366), FXIa (1.2 nM, Buffer A containing 1 mg/ml BSA, 0.7 mM S2366), activated protein C (4.3 nM, Buffer A, 0.7 mM S2366), plasmin (15 nM, Buffer A, 1 mM S2251), single chain t-PA (15 nM, Buffer A, 2.5 mM S2288), Factor XIIa (10 nM, Buffer A, 0.5 mM S2302, plasma kallikrein (10 nM, Buffer A, 0.5 mM S2302), HLE (17 nM, 0.1 M Tris, pH 7.5, 0.5 M NaCl and 0.005 % Triton X-100, 0.42 mM MeOSuc-AAPV-pNA) (SEQ ID NO:9), bovine trypsin (10 nM, Buffer A, 0.25 mM Spectrozyme fXa), and bovine chymotrypsin (10 nM, Buffer A, 1 mM Suc-AAPF-pNA) (SEQ ID NO:10). Buffer A contains 50 mM Tris, pH 7.5, 100 mM NaCl, 2 mM CaCl2 and 0.005% Triton X-100. Buffer B contains 50 mM Tris, pH 7.5, 100 mM NaCl, 10 mM CaCl2, 0.5% BSA, 60 nM TF1-243,and 1 mM CHAPS. The initial change in absorbance at 405 nm was monitored after addition of substrate. Controls lacking inhibitor and/or enzyme were also assayed to assess the uninhibited rates and the background substrate hydrolysis rates, respectively.

Substance	Ki (human plasma kallikrein; plasma kallikrein=1.3 nM) [nM]	Ki (human plasma kallikrein; plasma kallikrein=4.3 nM) [nM]	Ki (human FXa; apparent value, 0.5 mM Spectrozyme fXa, read-out: Ki* (apparent equilibrium dissociation value) with FXa)	Ki (human FXIIa) [nM]	Ki [1] [nM]	Percent Activity of Plasmin (plasmin) [%]	inhibition of plasmin, in words (plasmin; text statement)	inhibition of plasmin, in words (plasmin; text statement, listed as ecotin)	inhibition of FXa, in words (human FXa)	inhibition of plasmin, in words (plasmin; listed as P1 Lys mutant)	inhibition of plasmin, in words (plasmin; listed as P1 Arg mutant)
Ecotin: E. coli periplasmic protein having the 142 amino acid residue sequence reported by McGrath et al.; recombinant, P1 Met84	0.175 ± 0.02	0.151 ± 0.02	0.054 nM and 0.047 nM	0.124 ± 0.026	0.05	100	did not effectively inhibit	little or no inhibition	–	–	–
M84K	–	–	–	–	–	9	significant inhibition	–	slightly more potent as FXa inhibitors; also recorded: slightly more potent than the wild type inhibitor	significantly inhibited	–
M84R	–	–	–	–	–	10	significant inhibition	–	slightly more potent as FXa inhibitors; also recorded: slightly more potent than the wild type inhibitor	–	significantly inhibited
